Data on nine compounds can be found in patent publication US20240325393A1, “TOFACITINIB-CONTAINING ANHYDROUS ELASTOMER-BASED GEL FORMULATIONS” (VYNE THERAPEUTICS INC., priority 2020, published 2024).

Converted amounts (≈) assume the structure as drawn. Where two headings read alike, the source gives them in different places. Some results are limits rather than exact numbers.

The Cmax is the highest concentration seen after dosing. Usually AUC(0-t) stands for exposure summed from dosing to a finite time, without extrapolation to infinity. One may read the solubility as the concentration that dissolves in the medium under given conditions.

Data set [1] is described as follows: Interfacial tension predictions (Washburn method, Fowkes theory). Type of data set: physicochemical. How it is done:
Based on the contact angle data, the surface energy is calculated and polar and dispersive components of surface energy as well as surface polarity are estimated.
A surface tension study was performed to characterize active agent samples, various oils and specific formulations for Surface energy with polar and dispersive components. The Washburn method was used to determine contact angles and the Fowkes theory was used to calculate surface energies.
Surface tension measurements were performed on several oils and the following formulations: OT1.0016P (elastomer-MCT oil-based formulation), OT1.0021P (elastomer-based formulation comprising a combination of MCT oil, squalane and isopropyl isostearate) and OT1.0022P (elastomer-based formulation comprising a combination of MCT oil, squalane and oleyl alcohol).

A short description of data set [2]: Chemical stability of topical formulations (HPLC). It counts as physicochemical. How it is done: Where another active agent such as fingolimod is present in the formulations the samples are analysed for that active agent and its degradation products by HPLC. […] The gradient elution is employed.
Data set [3] is described as follows: Skin penetration (IVPT), vertical diffusion cell, LC-MS/MS. Type of data set: in vitro ADME, human. The settings on record: for Dermis concentration, μg/g Based on the Mean (n = 5) / Epidermis concentration, μg/g Based on the Mean (n = 5): estimated, skin 500 μm; for Dermis concentration, μg/g Based on the Mean (n = 5) / Epidermis concentration, μg/g Based on the Mean (n = 5) / estimated concentration of active in epidermis: epidermis assumed 80 μm, density 1.0 g/cm^3; for fingolimod concentration in receptor fluid: quantitation limit of LC-MS method. The procedure: The skin is dosed with approx. 6 mg of formulation to achieve a dose of ˜10 mg/cm2. Receptor solution is collected at pre-determined intervals over the course of 24 hours and analyzed using a liquid chromatography with tandem mass spectrometry (LC-MS/MS) analytical method.
Following 24 hours, the residual formulation is removed from the surface of the skin. The skin surface is tape-stripped up to five times to remove residual formulation and the top of the skin surface layers (Stratum Corneum). The epidermis is then heat-separated from the dermis. The active agent is extracted from the skin layers and the amount of active agent delivered to the epidermis and dermis is then determined by LC-MS/MS.

The nature of the next data set: in vivo. The settings on record: both, Gottingen, minipig, plasma (tofacitinib); whole blood (fingolimod), topical.
Data set [4] is described as follows: Toxicokinetic / pK evaluation in Gottingen Minipigs (plasma tofacitinib, whole blood fingolimod and fingolimod phosphate). As to conditions: minipig, topical.
Experimental: (§1) The animals are not fasted prior to blood collection, with the exception of the intervals that coincide with fasting for clinical pathology collections.
(§2) If necessary, the samples are frozen on dry ice prior to being placed in the freezer. […] Samples are stored at the bioanalytical laboratories in a freezer set to maintain −80±10° C. until analysis.
(§3) Samples designated for analysis of fingolimod and fingolimod phosphate are mixed gently, lysed with an equal volume of deionized water, vortexed for approximately 1 minute, divided into two approximately equal aliquots, transferred to uniquely labeled polypropylene tubes and frozen in a freezer set to maintain −70° C. If necessary, the samples are frozen on dry ice prior to being placed in the freezer. The samples for fingolimod analysis are shipped with a temperature monitoring device to bioanalytical laboratories. Samples are stored at the bioanalytical laboratories in a freezer set to maintain −75±15° C. until analysis.
(§4) Whole blood is analyzed for concentration of fingolimod and fingolimod phosphate using a validated analytical procedure for the simultaneous quantitation of both analytes.
(§5) TK samples collected on Days 49 and 56 from recovery animals in Groups 1, 2, 3, 5, and 6 are also analyzed. Statistical analyses including regression analysis and descriptive statistics including arithmetic means and standard deviations, accuracy, and precision are performed. Incurred sample reanalysis may be performed as part of this study according to the Test Site SOPs.
(§6) A non-compartmental approach consistent with the dermal route of administration is used for parameter estimation.
(§7) Partial AUCs (between 2 defined sample times), and corresponding dose-normalized values, are derived and reported to aid interpretation. Descriptive statistics (e.g., number, arithmetic mean, median, standard deviation, standard error, coefficient of variation) are reported as deemed appropriate, as well as ratios for appropriate grouping and sorting variables (e.g. AUC and/or Cmax female/male ratios, AUC and/or Cmax metabolite/parent drug ratios).
Data set [5] can be described thus: Visual solubility determination of Fingolimod free base in organic solvents at RT. As to conditions: for solubility: organic solvent or mixture, thermodynamic from solid, visual determination at RT. Type of data set: physicochemical. How it is done: A visual solubility evaluation of Fingolimod free base was performed.
Data set [6] deals with Atopic Dermatitis induced by 2,4-dinitrochlorobenzene (DNCB). The data set can be described thus: AD murine model: AD index (ADI, mADI), behaviour, histological analysis of skin. Type of data set: in vivo. As to conditions: DNCB induced mice, Example 41 (combination study).
Text: As used herein, “Atopic Dermatitis Index (ADI)” refers to the sum of the scores of four factors consisting of: (1) the presence of erythema/haemorrhage on the skin, (2) edema/thickening of the skin, (3) excoriation/erosion of the skin and (4) dryness/peeling of the skin at the area of induction of atopic dermatitis. The sum of the scores of these factors provides a combined ADI, on a scale of 0 to 12. […]
The presence of erythema/haemorrhage is scored based on the following scoring grid: • 0=no or no more erythema/haemorrhage on the skin, • 1=weak erythema/haemorrhage on the skin, • 2=moderate erythema/haemorrhage on the skin, • 3=severe erythema/haemorrhage on the skin.
The presence of edema/thickening is scored based on the following scoring grid: • 0=no or no more edema/thickening of the skin, • 1=weak edema/thickening of the skin, • 2=moderate edema/thickening of the skin, • 3=severe edema/thickening of the skin.
The presence of excoriation/erosion is scored based on the following scoring grid: • 0=no or no more excoriation/erosion of the skin, • 1=weak excoriation/erosion of the skin, • 2=moderate excoriation/erosion of the skin, • 3=severe excoriation/erosion of the skin. […]
Data set [7] has as its system Hartley-derived albino guinea pigs.
The subject of data set [8] is S1P receptors (S1P1 and S1P3-5). The settings on record: cited from earlier work.
Data set [9] is described as follows: AD murine model: body weight. The procedure:
Atopic Dermatitis is induced by once daily application for 38 days of 100 μl of 0.5% 2,4-dinitrochlorobenzene (DNCB) solution onto the shaved back skin of mice. Starting on day 32, test formulations are administered once daily onto the shaved back skin of mice in addition to DNCB. Several measurements are taken at different time points:
Daily from Day 32: Body weight, mortality, behaviour (scratching), general condition, AD index.

Where [10] appears, read: 2 months at 40° C., formulation of Table 38.
[11] abbreviates: 2 months at 50° C., formulation of Table 38.
Where [12] appears, read: 3 weeks at 5° C., formulation of Table 38.
The mark [13] stands for this setting: 3 weeks at 50° C., formulation of Table 38.
Setting [14] is: formulation with 1.0% tofacitinib citrate and […] fingolimod hydrochloride.
The mark [15] stands for this setting: Dermis, formulation of Table 42 (fingolimod HCl […]).
The mark [16] stands for this setting: Dermis, formulation of Table 43a.
[17] abbreviates: Epidermis, formulation of Table 43a.
Where [18] appears, read: Receptor fluid, formulation of Table 42 (fingolimod HCl […]).
Where [19] appears, read: Receptor fluid, formulation of Table 43a.

Experimental for in vivo: as §1, §2, §3, §4, §5, §6, §7

`C[C@@H]1CCN(C(=O)CC#N)C[C@@H]1N(C)c1ncnc2[nH]ccc12.O=C(O)CC(O)(CC(=O)O)C(=O)O` [Tofacitinib Citrate micronized Lot TOF0000004-04]: the “Interfacial Tension” value in data set [1] (with OT1.0016P) is listed as 2.72 mN/m; in data set [1] (with OT1.0021P) it was 2.17 mN/m; in data set [1] (with OT1.0022P), 1.95 mN/m; in data set [1] (with Stainless Steel), 2.50 mN/m.

Take `C[C@@H]1CCN(C(=O)CC#N)C[C@@H]1N(C)c1ncnc2[nH]ccc12.O=C(O)CC(O)(CC(=O)O)C(=O)O` [Tofacitinib Citrate non-micronized Lot TOF0000004]: the “Interfacial Tension” value is on record as 1.88 mN/m in data set [1] (with OT1.0016P), 1.45 mN/m in [1] (with OT1.0021P) and 1.62 mN/m in [1] (with Stainless Steel).

`C[C@@H]1CCN(C(=O)CC#N)C[C@@H]1N(C)c1ncnc2[nH]ccc12` [tofacitinib]: the “Assay, % LC” value is reported as 99.2 % LC in data set [2] (setting [10]), 98.6 % LC in data set [2] (setting [11]), 99.3 % LC in data set [2] (setting [12]) and 99.1 % LC in data set [2] (setting [13]). Further, the “Dermis concentration, μg/g Based on the Mean (n = 5)” value in data set [3] (formulation of Table 43a) was 34.9 µg/g. Moreover, in data set [3] (formulation of Table 43a), the “Epidermis concentration, μg/g Based on the Mean (n = 5)” value was 364.3 µg/g. The “estimated concentration of active in dermis” value in data set [3] (setting [14]) is 34.9 µg/g. The “estimated concentration of active in epidermis” value in [3] (setting [14]) was 364.3 µg/g. This compound also returned a peak concentration (Cmax) in “in vivo” of 1.56 ng/mL.

In data set [4], `CCCCCCCCc1ccc(CCC(N)(CO)CO)cc1` [fingolimod, 2-amino-2-[2-(4-octylphenyl)ethyl]propane-1,3-diol] had an area under the curve AUC(0-t) of 3.73 ng·h/mL. Moreover, the highest concentration (Cmax) in data set [4] came to 0.467 ng/mL. Also, the “Assay, % LC” value in data set [2] (setting [10]) was 97.2 % LC; in data set [2] (setting [11]) it was 95.0 % LC; in [2] (setting [12]), 100.3 % LC; in data set [2] (3 weeks at 40° C., formulation of Table 38), 99.9 % LC; in data set [2] (setting [13]), 94.1 % LC; in [2] (Initial, elastomer-based formulation of Table 38 (tofacitinib citrate 1.0%, fingolimod HCl 0.01%)), 99.9 % LC. The visual solubility result is “very good solubility” in data set [5] (alcohols, RT); “good solubility” in data set [5] (most of organic solvents tested, RT); “very low soluble” in data set [5] (water, toluene, diisopropyloxide and methyl ethyl ketone). The solubility in [5] (2-Methyl tetrahydrofurane) was found to be 10000 µg/mL (≈ 32.5 mM); in data set [5] (Acetone), 5000 µg/mL (≈ 16.3 mM); in [5] (Acetonitrile), 1800 µg/mL (≈ 5.85 mM); in [5] (Dichloromethane), 6700 µg/mL (≈ 21.8 mM); in data set [5] (Ethyl acetate), 4000 µg/mL (≈ 13 mM); in [5] (Isopropanol), 20000 µg/mL (≈ 65 mM). For the same compound, the figures for the solubility in data set [5] (Methyl ethyl ketone), in data set [5] (Methyl isobutyl ketone) and in [5] (tert-Butyl methyl ether) were 1200 µg/mL (≈ 3.9 mM), 5000 µg/mL (≈ 16.3 mM) and 2000 µg/mL (≈ 6.5 mM), respectively. In addition, the “Amount of Fingolimod recovered, % applied dose, Mean (n = 5)” value is 2.59% in [3] (setting [15]); 1.44% in [3] (setting [16]); 1.98% in [3] (Epidermis, formulation of Table 42 (fingolimod HCl […])); 1.59% in data set [3] (setting [17]); “ND (ND—not detected (below LOQ of 0.25 ng/mL))” in data set [3] (setting [18]); “ND (ND—not detected (below LOQ of 0.25 ng/ml))” in data set [3] (setting [19]). The “Amount of Fingolimod recovered, ng, Mean (n = 5)” value was 49.16 ng in data set [3] (setting [15]); 14.82 ng in [3] (setting [16]); 16.21 ng in data set [3] (setting [17]); “ND (ND—not detected (below LOQ of 0.25 ng/mL))” in data set [3] (setting [18]); “ND (ND—not detected (below LOQ of 0.25 ng/ml))” in data set [3] (setting [19]). Also, the “Dermis concentration, μg/g Based on the Mean (n = 5)” value in data set [3] (formulation of Table 43a) was 0.6 µg/g. The “Epidermis concentration, μg/g Based on the Mean (n = 5)” value in data set [3] (formulation of Table 43a) is 3.4 µg/g. The “fingolimod concentration in receptor fluid” value in data set [3] (formulation containing […] of fingolimod hydrochloride) and in data set [3] (setting [14]) was less than 0.25 ng/mL in each case. In addition, the “estimated concentration of active in dermis” value in data set [3] (setting [14]) is 0.6 µg/mL. Also, the “estimated concentration of active in epidermis” value in [3] (setting [14]) is 3.4 µg/g.

For `CC1(C)O[C@@H]2C[C@H]3[C@@H]4CCC5=CC(=O)C=C[C@]5(C)[C@@]4(F)[C@@H](O)C[C@]3(C)[C@]2(C(=O)CO)O1` [triamcinolone acetonide], the “Mean ADI values (AD Index) D 39” value in data set [6] was 0.88.

`O=[N+]([O-])c1ccc(Cl)c([N+](=O)[O-])c1` [DNCB, 2,4-dinitrochlorobenzene]: the “Group mean dermal scores, test animals” value in [7] (challenge with 0.05% w/v DNCB in acetone and ethanol, control animals 0.25) stood at 0.6; in [7] (challenge with 0.1% w/v DNCB in acetone and ethanol, control animals 0.375) it was 1.45.

On to fingolimod-phosphate, for which, in data set [8], the “affinity to four of the five S1P receptors (S1P1 and S1P3-5)” value is 0.3 to 3.1 nM.

Triamcinolone: in data set [9] (mouse, in vivo), the “Body weight D39 Mean” value is recorded as 17.7 g; the “Body weight D39 mean” value worked out at 17.1 g; the “Mean Body Weight Change Day 39 − Day 32, Study 1” value was −2.80; the “Mean Body Weight Change Day 39 − Day 32, Study 2” value is reported as −2.06. Further, the “Mean Body Weight Change d 39 − d 32” value in data set [9] (mouse, in vivo) is −2.80.

For the compound `CC1(C)O[C@@H]2C[C@H]3[C@@H]4CCC5=CC(=O)C=C[C@]5(C)[C@@]4(F)[C@@H](O)C[C@]3(C)[C@]2(C(=O)CO)O1` [Triamcinolone acetonide], the “Mean body weights values: Weight D 32” value in data set [9] (DNCB induced mice, Example 41, D 32 (treatment start)) is reported as 18.31. Moreover, in data set [9] (DNCB induced mice, Example 41, D 39), the “Mean body weights values: Weight D 39” value is given as 15.66. The “Mean Body Weight Change d 39 − d 32” value in data set [9] (DNCB induced mice, Example 41, (+) weight gain, (−) weight loss) is recorded as −2.65.
